Measurements as given in US6042848A, “Enhancement of antimicrobial peptide activity by metal ions” (The Board of Trustees of Southern Illinois University, priority 1997, dated 2000).

Assays:
E. coli = assay: Bactericidal assay, E. coli colony count after 30 min incubation with peptide and CuSO4; assay type: cell-based
Description: Bovine TAP was synthesized and purified to a single HPLC peak. Bactericidal assay was carried out by growing wild-type E. coli in tryptic soy broth (TSB) until the OD600 reached 0.2. Cells were then diluted in 50 μl 10 mM NaPO4 buffer, pH 7.4, to 4×10^5 cells/ml. […] Five Al samples were plated on L-agar, and the plates were incubated at 37° C. overnight. Colonies were then counted.

Pseudomonas aeruginosa = assay: Bactericidal assay, Pseudomonas strain from a cystic fibrosis patient, with TAP, NaCl and CuSO4; assay type: cell-based
Description: Bovine TAP of 38 amino acids was chemically synthesized by the method of Duclohier ((1989) Biophys. J. 5:1017-1021), and purified to a single peak by HPLC. Bactericidal assay was carried out by growing a wild-type Pseudomonas strain obtained from a cystic fibrosis patient in TSB until the OD600 reached 0.2. Cells were then diluted in 50 μl 10 mM NaPO4 buffer, pH 7.4, to 4×10^5 cells/ml. […] TAP, varying concentrations of NaCl, and 0.1 mM CuS04 were added, and the mixtures were incubated for 30 minutes at 37° C. Five μl samples were taken and plated on L-agar, and the plates were incubated at 37° C. overnight. Colonies were then counted.

[1] = NaCl 0 mM, TAP 0 μg/ml, CU 0 mM as printed (second such line)
[2] = NaCl 15 mM, TAP 0 μg/ml, CU 0.1 mM
[3] = NaCl 25 mM, TAP 0 μg/ml, CU 0.1 mM
[4] = NaCl 50 mM, TAP 0 μg/ml, CU 0.1 mM
[5] = NaCl 75 mM, TAP 0 μg/ml, CU 0.1 mM
[6] = peptide 10 ug/ml, CuSO4 0 mM, 30 min 37 C
[7] = peptide 10 ug/ml, CuSO4 0.01 mM, 30 min 37 C
[8] = peptide 10 ug/ml, CuSO4 0.1 mM, 30 min 37 C
[9] = NaCl 15 mM, TAP 10 μg/ml, CU 0.1 mM
[10] = NaCl 25 mM, TAP 10 μg/ml, CU 0.1 mM
[11] = NaCl 50 mM, TAP 10 μg/ml, CU 0.1 mM
[12] = NaCl 75 mM, TAP 10 μg/ml, CU 0.1 mM

## O=S(=O)([O-])[O-].[Cu+2] [CuSO4, copper sulfate (cupric sulfate)]
E. coli; No Peptide, CuSO4 0.01 mM
  % SURVIVAL: 62%
E. coli; No Peptide, CuSO4 0.1 mM
  % SURVIVAL: 22%
E. coli; No Peptide, CuSO4 1 mM
  % SURVIVAL: 16%
E. coli; No Peptide, CuSO4 10 mM
  % SURVIVAL: 7%
E. coli; No Peptides, CuSO4 0.01 mM
  # COLONIES: 1776
E. coli; No Peptides, CuSO4 0.1 mM
  # COLONIES: 640
E. coli; No Peptides, CuSO4 1 mM
  # COLONIES: 443
E. coli; No Peptides, CuSO4 10 mM
  # COLONIES: 211
Pseudomonas aeruginosa; [1]
  # COLONIES: 534
  % SURVIVAL: 35%
Pseudomonas aeruginosa; [2]
  # COLONIES: 580
  % SURVIVAL: 39%
Pseudomonas aeruginosa; [3]
  # COLONIES: 513
  % SURVIVAL: 34%
Pseudomonas aeruginosa; [4]
  # COLONIES: 696
  % SURVIVAL: 46%
Pseudomonas aeruginosa; [5]
  # COLONIES: 796
  % SURVIVAL: 53%

## Tracheal Antimicrobial Peptide (NPVSCVRNKGICVPIRCPGSMKQIGTCVGRAVKCCRKK; UniProt P25068 27-64, looked up) [TAP, airway beta-defensin; bovine TAP of 38 amino acids, chemically synthesized and purified to a single HPLC peak]
E. coli; TAP 1 ug/ml, CuSO4 0 mM
  % SURVIVAL: 40%
E. coli; TAP 1 ug/ml, CuSO4 0.01 mM
  % SURVIVAL: 8%
E. coli; TAP 1 ug/ml, CuSO4 0.1 mM
  % SURVIVAL: 2%
E. coli; peptide 10 ug/ml, Cu 0 mM
  # COLONIES: 119
E. coli; peptide 10 ug/ml, Cu 0.01 mM
  # COLONIES: 106
E. coli; peptide 10 ug/ml, Cu 0.1 mM
  # COLONIES: 32
E. coli; [6]
  % SURVIVAL: 9%
E. coli; [7]
  % SURVIVAL: 8%
E. coli; [8]
  % SURVIVAL: 2%
Pseudomonas aeruginosa; [9]
  # COLONIES: 233
  % SURVIVAL: 15%
Pseudomonas aeruginosa; [10]
  # COLONIES: 89
  % SURVIVAL: 6%
Pseudomonas aeruginosa; [11]
  # COLONIES: 242
  % SURVIVAL: 16%
Pseudomonas aeruginosa; [12]
  # COLONIES: 363
  % SURVIVAL: 24%
Pseudomonas aeruginosa; copper 0.1 mM, increasing NaCl concentrations
  killing of Pseudomonas by the combination of copper ions and TAP versus TAP alone: more effective than TAP alone

## magainin
E. coli; 0.01 to 0.1 mM CuS04
  effect of CuSO4 on the antimicrobial activity of the peptide: enhanced the antimicrobial activity
E. coli; peptide 10 ug/ml, Cu 0 mM
  # COLONIES: 1895
E. coli; peptide 10 ug/ml, Cu 0.01 mM
  # COLONIES: 1654
E. coli; peptide 10 ug/ml, Cu 0.1 mM
  # COLONIES: 975
E. coli; [6]
  % SURVIVAL: 80%
E. coli; [7]
  % SURVIVAL: 70%
E. coli; [8]
  % SURVIVAL: 41%
